Earlier results as cited in patent US8569299B2, “Prolylcarboxypeptidase inhibitors” (Merck Sharp & Dohme Corp, priority 2010, dated 2013).
Read-outs that look alike come from different tables or passages of the source. Where no end group is shown, it is not given here.

How the values were obtained:
[1] = intracerebroventricular, rats
[2] = systemic administration, obese leptin deficient mice
[3] = in vivo
[4] = overnight fasted animals, 2.5 ug

| Molecule | weight loss of body weight for drug compared to placebo [3] | also measured |
| --- | --- | --- |
| t-butyl carbamate-prolyl prolinal [BPP] |  | overnight food intake [1]: suppression of overnight food intake; overnight food intake [2]: suppression of overnight food intake |
| CCCCCCCCCCC[C@@H](C[C@@H]1OC(=O)[C@H]1CCCCCC)OC(=O)[C@H](CC(C)C)NC=O [orlistat] | 5%-10% |  |
| CC(C)(N)Cc1ccccc1 [phentermine] | 5%-10% |  |
| CC(C)CC(N(C)C)C1(c2ccc(Cl)cc2)CCC1 (stereo not shown) [sibutramine] | 5%-10% |  |
| alpha-melanocyte-stimulating hormone (SYSMEHFRWGKPV; ends and bridges not checked; UniProt P01189 138-150, looked up) [α-MSH1-13, peptide hormone derived from POMC, substrate of PRCP] |  | reduction in food intake relative to control animals [4]: 40% |
| CCN[C@@H](C)Cc1cccc(C(F)(F)F)c1 [dexfenfluramine] | 5%-10% |  |
